Measured values published in patent publication US11904042B2, “Hair coloring composition and methods for its application and removal” (HFC Prestige International Holding Switzerland S.a.r.l, priority 2018, dated 2024).

Legend:
Settings in all cases: after 15 washes
[1] = Example 2A: azo dye in multicomponent kit (Michael addition), color result and wash fastness
Procedure: (§1) Pretreatment to Apply Cationic Polymer (PEI, Polyethylenimine) on the Hair Fiber Surface: • 1 ml of PEI solution (0.5% aqueous solution of PEI (MW: 75 kDa) is applied on the hair strand. • The hair strand is dried via blow-dryer, followed by further drying at 40° C. in the oven.
100 mg azo dye is suspended in 1 g THF, and 8.4 g Isododecane (2,2,4,6,6-pentamethylheptane) solution are added as solvent. Subsequently, 200 mg Silmer OH ACR DI-10 polymer (acrylate derivative) and 300 mg Silamine 2972 is added to the reaction mixture. The mixture is stirred at room temperature for 5 min.
(§2) 1 g of the above prepared formulation is applied on a pre-treated hair tress (as described above) and the polymers are allowed to react to start forming a film immobilizing the added dye. After removing the excess of the formulation, the film forming reaction is completed as the hair tress is dried via a heat blower.

[2] = Example 2B: azo dye in multicomponent kit (isocyanate / OH silicone), color result and wash fastness
Procedure: as §1
100 mg azo dye are mixed with 300 mg isocyanate polymer (Silmer NCO DI50); 9.4 g 2,2,4,6,6-pentamethylheptane are added and the mixture is well shaked.
Subsequently, 200 mg OH Silicone (Silmer OHT C-50) are added to the reaction mixture. The mixture is stirred at room temperature for 5 min.
as §2

[3] = Example 2C: azo dye in multicomponent kit (silicone & carbon-hybrid system), color result and wash fastness
Procedure: as §1
100 mg azo dye are mixed with 400 mg isocyanate polymer (Melio 09-S-11); 9.3 g 1-Methoxy-2-propanol are added and the mixture is well shaked.
as §2, with “Subsequently, 200 mg OH Silicone (Silmer OHT C-50) are added to the reaction mixture. The mixture is stirred at room temperature for 5 min. 1” for “1”

Row | SMILES | color remains to an extent of [1] | color remains to an extent of [2] | color remains to an extent of [3]
1 | CCN(CCO)c1ccc(/N=N/c2nc(N3CCN(C)CC3)c(C=C3C(=O)c4ccccc4C3=O)s2)cc1 [black azo, 2-[[2-[(E)-[4-[ethyl(2-hydroxyethyl)amino]phenyl]azo]-4-(4-methylpiperazin-1-yl)thiazol-5-yl]methylene]indane-1,3-dione] | 30% | 50% | 80%
2 | CCN(CCO)c1ccc(/N=N/c2nc(Cl)c(C=C3C(=O)c4ccccc4C3=O)s2)cc1 [blue azo, 2-{[4-chloro-2-((E)-{4-[ethyl(2-hydroxyethyl)amino]phenyl}diazenyl)-1,3-thiazol-5-yl]methylidene}-1H-indene-1,3(2H)-dione] | 80% | 90% | 80%
